Source: the supplement of paper PMC8149375

Tests used:
Settings in all cases: treatment: drug alone; 5 days
[1] = system: A498; experiment: GI50, drug alone; higher = less potent
Method: (§1)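 Primary HTS: 8 RCC cell lines treated with 8 doses (up to 10 uM) of each library drug alone for 5 days; viability read by CellTiter-Glo and normalised to DMSO. GI50 was fitted with XLfit (4-parameter), AUC is the area under the dose-response curve, and minimum viability is the lowest fraction of DMSO viability across doses.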

[2] = system: CAKI-1; experiment: GI50, drug alone; higher = less potent
Method: as §1

[3] = system: TK-10; experiment: GI50, drug alone; higher = less potent
Method: as §1

[4] = system: ACHN; experiment: GI50, drug alone; higher = less potent
Method: as §1

[5] = system: 769-P; experiment: GI50, drug alone; higher = less potent
Method: as §1

[6] = system: 786-O; experiment: GI50, drug alone; higher = less potent
Method: as §1

[7] = system: UO-31; experiment: GI50, drug alone; higher = less potent
Method: as §1

[8] = system: SN12C; experiment: GI50, drug alone; higher = less potent
Method: as §1

[9] = system: A498; experiment: AUC of dose-response viability curve, drug alone (arbitrary (AUC of normalised viability)); higher = less growth inhibition
Method: as §1

[10] = system: CAKI-1; experiment: as above
Method: as §1

[11] = system: TK-10; experiment: as above
Method: as §1

[12] = system: ACHN; experiment: as above
Method: as §1

[13] = system: 769-P; experiment: as above
Method: as §1

[14] = system: 786-O; experiment: as above
Method: as §1

[15] = system: UO-31; experiment: as above
Method: as §1

[16] = system: SN12C; experiment: as above
Method: as §1

[17] = system: A498; experiment: minimum viability across doses, drug alone, relative to DMSO (fraction); higher = less growth inhibition
Method: as §1

[18] = system: CAKI-1; experiment: as above
Method: as §1

[19] = system: TK-10; experiment: as above
Method: as §1

[20] = system: ACHN; experiment: as above
Method: as §1

[21] = system: 769-P; experiment: as above
Method: as §1

[22] = system: 786-O; experiment: as above
Method: as §1

[23] = system: UO-31; experiment: as above
Method: as §1

[24] = system: SN12C; experiment: as above
Method: as §1

SMILES	GI50, drug alone [1] [µM]	GI50, drug alone [2] [µM]	GI50, drug alone [3] [µM]	GI50, drug alone [4] [µM]	GI50, drug alone [5] [µM]	GI50, drug alone [6] [µM]	GI50, drug alone [7] [µM]	GI50, drug alone [8] [µM]	AUC of dose-response viability curve [9]	AUC of dose-response viability curve [10]	AUC of dose-response viability curve [11]	AUC of dose-response viability curve [12]	AUC of dose-response viability curve [13]	AUC of dose-response viability curve [14]	AUC of dose-response viability curve [15]	AUC of dose-response viability curve [16]	minimum viability across doses [17]	minimum viability across doses [18]	minimum viability across doses [19]	minimum viability across doses [20]	minimum viability across doses [21]	minimum viability across doses [22]	minimum viability across doses [23]	minimum viability across doses [24]
Cn1cc(-c2ccc3nnc(Sc4ccc5ncccc5c4)n3n2)cn1 [SGX-523]	> 10	> 10	> 10	> 10	> 10	> 10	> 10	> 10	3.75	3.18	3.06	3.23	3.22	2.77	3.83	3.21	0.855	0.806	0.775	0.725	0.776	0.56	1.01	0.746
CS(=O)(=O)O.O=C(Nc1cccc(Cl)c1)Nc1ncc(CCNc2ncnc3ccsc23)s1 [SNS-314]	> 10	0.0361	> 10	0.168	0.506	0.0504	> 10	1.75	4.02	1.36	2.73	1.77	2.2	1.76	4.36	2.54	0.637	0.172	0.536	0.17	0.343	0.159	0.891	0.245
CN1CCN(CCOc2cc(OC3CCOCC3)c3c(Nc4c(Cl)ccc5c4OCO5)ncnc3c2)CC1 [Saracatinib (AZD0530)]	> 10	2.34	1.22	1.03	1.26	2.81	8.99	> 10	3.69	3.08	2.45	2.46	2.47	2.35	4.46	2.84	0.958	0.213	0.109	0.22	0.0835	0.302	0.447	0.504
Cc1cc(C)c(/C=C2\C(=O)Nc3ccccc32)[nH]1 [Semaxanib (SU5416)]	> 10	> 10	> 10	> 10	> 10	> 10	> 10	> 10	3.76	3.45	3.2	2.92	3.45	3.12	4.68	3.42	0.97	0.902	0.778	0.76	0.892	0.778	0.928	0.911
CNC(=O)c1cc(Oc2ccc(NC(=O)Nc3ccc(Cl)c(C(F)(F)F)c3)cc2)ccn1.Cc1ccc(S(=O)(=O)O)cc1 [Sorafenib (Nexavar)]	> 10	9.2	> 10	8.05	> 10	4.87	0.734	5.13	3.4	3.55	3.25	3.46	3.31	2.7	2.44	2.9	0.627	0.18	0.513	0.0796	0.592	0.0994	0.00476	0.154
CN1CCN(c2nc(C3=C(c4c[nH]c5ccccc45)C(=O)NC3=O)c3ccccc3n2)CC1 [Sotrastaurin (AEB071)]	> 10	> 10	> 10	> 10	> 10	> 10	> 10	> 10	4.36	3.38	3.23	3.2	2.58	4	5.49	3.44	1.12	0.783	0.805	0.743	0.969	0.911	1.38	0.91
CN[C@@H]1C[C@H]2O[C@@](C)([C@@H]1OC)n1c3ccccc3c3c4c(c5c6ccccc6n2c5c31)C(=O)NC4 [Staurosporine]	0.0909	< 0.003	< 0.003	0.00533	< 0.003	< 0.003	< 0.003	0.0333	1.56	0.143	0.286	0.526	0.299	0.171	0.1	1.06	0.0127	0.00272	0.0227	0.00377	0.00587	0.00288	0.0116	0.00485
CCN(CC)CCNC(=O)c1c(C)[nH]c(/C=C2\C(=O)Nc3ccc(F)cc32)c1C.O=C(O)C[C@H](O)C(=O)O [Sunitinib Malate (Sutent)]	5.2	1.49	3.29	0.65	5.36	3.98	3.15	1.9	3.58	2.77	2.82	2.33	3.15	3.62	3.93	2.6	0.21	0.0138	0.186	0.0641	0.156	0.0182	0.0171	0.0296
COc1cc(N2CCC(N3CCN(C)CC3)CC2)ccc1Nc1ncc(Cl)c(Nc2ccccc2S(=O)(=O)C(C)C)n1 [TAE684 (NVP-TAE684)]	1.43	2.33	3.59	1.84	> 10	< 0.003	> 10	2.62	3.29	2.9	2.82	2.65	3.21	1.87	4.34	2.74	0.399	0.255	0.356	0.237	0.722	0.124	0.927	0.182
CC(C)(O)CC(=O)NCCn1ccc2ncnc(Nc3ccc(Oc4cccc(C(F)(F)F)c4)c(Cl)c3)c21 [TAK-285]	> 10	> 10	3.95	4.12	6.69	> 10	> 10	> 10	3.69	3.14	2.5	2.78	3.04	2.42	4.9	3.17	0.852	0.584	0.412	0.421	0.407	0.524	1.21	0.81
Cn1c(=O)c(F)c(Nc2ccc(I)cc2F)c2c(=O)n(C[C@@H](O)CO)cnc21 [TAK-733]	> 10	0.095	0.149	0.209	0.933	0.167	2.45	0.758	3.42	1.57	1.72	1.8	2.33	2.08	3.49	2.08	0.784	0.17	0.242	0.291	0.293	0.396	0.0861	0.26
CCS(=O)(=O)c1cccc(-c2cc(C(=O)NC3CCN(C)CC3)c(C)c3[nH]c4ncc(C)cc4c23)c1 [TAK-901]	0.956	1.32	0.836	0.708	> 10	0.381	8.94	0.383	3.09	2.65	2.27	2.33	3.25	1.81	4.08	1.98	0.0141	0.0277	0.0432	0.0394	0.521	0.00628	0.21	0.00544
Nc1nc(N)c2nc(-c3cccc(O)c3)c(-c3cccc(O)c3)nc2n1 [TG100-115]	> 10	> 10	> 10	> 10	> 10	> 10	> 10	> 10	4.15	2.42	3.25	3.33	3.5	3.66	5.18	3.31	0.862	0.567	0.871	0.685	0.912	0.873	1.2	0.804
Cc1cc(C(C)Nc2ccccc2)c2nc(N3CCOCC3)cc(=O)n2c1 (configuration not stated) [TGX-221]	> 10	8.6	> 10	> 10	> 10	> 10	> 10	> 10	4.23	2.84	3.06	3.15	3.18	2.6	5.04	3.34	1.04	0.49	0.707	0.736	0.749	0.622	1.15	0.847
NC(=O)Nc1sc(-c2ccc(F)cc2)cc1C(N)=O [TPCA-1]	> 10	1.45	1.78	1.29	> 10	4.89	> 10	> 10	4.38	2.67	2.53	2.57	3.16	2.54	3.64	3.24	1.1	0.117	0.178	0.201	0.355	0.189	0.627	0.544
Cc1[nH]c(/C=C2\C(=O)Nc3ccccc32)c(C)c1CCC(=O)O [TSU-68]	> 10	> 10	> 10	> 10	> 10	> 10	> 10	> 10	3.71	3.34	3.26	3.12	3.3	3.1	2.36	3.41	0.884	0.903	0.855	0.752	0.887	0.786	0.879	0.882
CC(C)c1ccccc1Cc1cc(C(=O)Nc2ccc(S(=O)(=O)c3ccccc3C(C)(C)C)cc2)c(O)c(O)c1O [TW-37]	> 10	0.926	1.73	1.46	2.8	0.133	8.46	> 10	4	2.77	2.25	2.48	3.12	1.54	4.07	2.97	0.946	0.0857	0.296	0.0989	0.0442	0.0508	0.0881	0.499
Nc1cccc(-c2cc3c(Oc4cccc(O)c4)ncnc3[nH]2)c1 [TWS119]	> 10	4.56	2.65	2.8	3.63	5.04	8.62	5.5	3.93	3.09	2.75	2.77	2.93	3.03	4.2	2.86	0.572	0.113	0.0991	0.153	0.0987	0.154	0.0946	0.295
